Data published in patent US10477864B2, “Microbiocidal quinoline (thio)carboxamide derivatives” (priority 2016, dated 2019).

How the values were obtained:
[1] = system: Monographella nivalis (Microdochium nivale); test: Monographella nivalis (Microdochium nivale) / liquid culture (foot rot cereals); type: cell-based; settings: 96 h, read-out: control of Monographella nivalis
[2] = system: Magnaporthe grisea (Pyricularia oryzae); test: microbe, parasite or virus in culture; type: cell-based; settings: 72 h, read-out: control of Magnaporthe grisea
[3] = system: Fusarium culmorum; test: whole plant or invertebrate; type: in vivo; settings: in Triticum aestivum, read-out: control of Fusarium culmorum
[4] = system: Botryotinia fuckeliana (Botrytis cinerea); test: Botryotinia fuckeliana (Botrytis cinerea) / liquid culture (gray mould); type: cell-based; settings: 72 h, read-out: control of Botryotinia fuckeliana
[5] = system: Fusarium culmorum; test: microbe, parasite or virus in culture; type: cell-based; settings: read-out: control of Fusarium culmorum
[6] = system: Gaeumannomyces graminis; test: Gaeumannomyces graminis / liquid culture (take-all of cereals); type: cell-based; settings: read-out: control of Gaeumannomyces graminis
[7] = system: Glomerella lagenarium (Colletotrichum lagenarium); test: Glomerella lagenarium (Colletotrichum lagenarium) / liquid culture (anthracnose); type: cell-based; settings: Colletotrichum orbiculare; read-out: control of Glomerella lagenarium

| Structure (SMILES) | inhibition of growth at 200 ppm [1] | inhibition of growth at 200 ppm [2] | pest or weed control at 200 ppm [3] | inhibition of growth at 200 ppm [4] | inhibition of growth at 200 ppm [5] | inhibition of growth at 200 ppm [6] | inhibition of growth at 200 ppm [7] | melting point |
| --- | --- | --- | --- | --- | --- | --- | --- | --- |
| CC(C)CC(C)(NC(=O)c1cnc2ccccc2c1)C(F)(F)c1ccccc1 (stereo not drawn) [Compound E-59, N-[1-[difluoro(phenyl)methyl]-1,3-dimethyl-butyl]quinoline-3-carboxamide] | ≥ 80% | ≥ 80% | ≥ 80% | ≥ 80% | ≥ 80% |  |  |  |
| CC(C#N)(Cc1ccc(F)cc1F)NC(=O)c1cnc2c(F)cccc2c1 (stereo not drawn) [Compound E-8, N-[1-cyano-2-(2,4-difluorophenyl)-1-methyl-ethyl]-8-fluoro-quinoline-3-carboxamide] |  |  |  | ≥ 80% | ≥ 80% | ≥ 80% |  |  |
| CC(C)(F)CC(C)(Cc1ccccc1)NC(=O)c1cnc2c(F)cccc2c1 (stereo not drawn) [Compound E-56, N-(1-benzyl-3-fluoro-1,3-dimethyl-butyl)-8-fluoro-quinoline-3-carboxamide] | ≥ 80% | ≥ 80% | ≥ 80% | ≥ 80% | ≥ 80% |  | ≥ 80% |  |
| O=C(NC(Cc1ccccc1)CC(F)(F)F)c1cnc2c(F)cccc2c1 (stereo not drawn) [Compound E-30, N-(1-benzyl-3,3,3-trifluoro-propyl)-8-fluoro-quinoline-3-carboxamide] | ≥ 80% | ≥ 80% | ≥ 80% | ≥ 80% | ≥ 80% |  | ≥ 80% | 140 to 142 °C |
| CC(C)(C)C[C@@](C)(Cc1ccccc1)NC(=O)c1cnc2c(F)cccc2c1 [Compound F-18, N-[(1S)-1-benzyl-1,3,3-trimethyl-butyl]-8-fluoro-quinoline-3-carboxamide] | ≥ 80% |  | ≥ 80% | ≥ 80% | ≥ 80% | ≥ 80% | ≥ 80% |  |
| CC(C)CC(C)(NC(=O)c1cnc2c(F)cccc2c1)C(F)(F)c1ccccc1 (stereo not drawn) [Compound E-54, N-[1-[difluoro(phenyl)methyl]-1,3-dimethyl-butyl]-8-fluoro-quinoline-3-carboxamide] | ≥ 80% | ≥ 80% |  | ≥ 80% | ≥ 80% |  | ≥ 80% |  |
| Cc1ccc(CC(C)(CC(C)C)NC(=O)c2cnc3c(F)cccc3c2)cc1 (stereo not drawn) [Compound E-31, N-[1,3-dimethyl-1-(p-tolylmethyl)butyl]-8-fluoro-quinoline-3-carboxamide] | ≥ 80% | ≥ 80% |  | ≥ 80% | ≥ 80% |  | ≥ 80% | 116 to 118 °C |
| CC(C)C(C)(Cc1ccccc1)NC(=O)c1cnc2c(F)cccc2c1 (stereo not drawn) [Compound E-5, N-(1-benzyl-1,2-dimethyl-propyl)-8-fluoro-quinoline-3-carboxamide] | ≥ 80% | ≥ 80% | ≥ 80% | ≥ 80% | ≥ 80% |  | ≥ 80% |  |
| CC(C#N)(Cc1ccccc1)NC(=O)c1cnc2c(F)cccc2c1 (stereo not drawn) [Compound E-10, N-(1-cyano-1-methyl-2-phenyl-ethyl)-8-fluoro-quinoline-3-carboxamide] |  |  | ≥ 80% | ≥ 80% | ≥ 80% | ≥ 80% |  |  |
| CC(C)(F)CC(C)(Cc1ccccc1)NC(=O)c1cnc2ccccc2c1 (stereo not drawn) [Compound E-57, N-(1-benzyl-3-fluoro-1,3-dimethyl-butyl)quinoline-3-carboxamide] | ≥ 80% | ≥ 80% | ≥ 80% | ≥ 80% | ≥ 80% |  | ≥ 80% |  |
| CC(Cc1ccccc1)(CC(F)(F)F)NC(=O)c1cnc2c(Cl)cccc2c1 (stereo not drawn) [Compound E-60, N-(1-benzyl-3,3,3-trifluoro-1-methyl-propyl)-8-chloro-quinoline-3-carboxamide] | ≥ 80% | ≥ 80% | ≥ 80% | ≥ 80% | ≥ 80% |  | ≥ 80% | 141 to 144 °C |
| CC(C)C[C@@H](Cc1ccccc1)NC(=O)c1cnc2c(F)cccc2c1 [Compound F-4, N-[(1S)-1-benzyl-3-methyl-butyl]-8-fluoro-quinoline-3-carboxamide] | ≥ 80% |  | ≥ 80% | ≥ 80% | ≥ 80% | ≥ 80% | ≥ 80% |  |
| CC(C)C[C@](C)(Cc1ccccc1)NC(=O)c1cnc2ccccc2c1 [Compound F-5, N-[(1R)-1-benzyl-1,3-dimethyl-butyl]quinoline-3-carboxamide] | ≥ 80% |  | ≥ 80% | ≥ 80% | ≥ 80% | ≥ 80% | ≥ 80% |  |
| Cc1cccc(CC(C)(CC(C)C)NC(=O)c2cnc3c(F)cccc3c2)c1 (stereo not drawn) [Compound E-33, N-[1,3-dimethyl-1-(m-tolylmethyl)butyl]-8-fluoro-quinoline-3-carboxamide] | ≥ 80% | ≥ 80% |  | ≥ 80% | ≥ 80% |  | ≥ 80% | 94 to 96 °C |
| CC(C)C[C@@](C)(Cc1ccccc1Cl)NC(=O)c1cnc2c(F)cccc2c1 [Compound F-8, N-[(1S)-1-[(2-chlorophenyl)methyl]-1,3-dimethyl-butyl]-8-fluoro-quinoline-3-carboxamide] | ≥ 80% |  |  | ≥ 80% | ≥ 80% | ≥ 80% | ≥ 80% |  |
| CC(C)(C)C[C@](C)(Cc1ccccc1)NC(=O)c1cnc2c(F)cccc2c1 [Compound F-17, N-[(1R)-1-benzyl-1,3,3-trimethyl-butyl]-8-fluoro-quinoline-3-carboxamide] |  |  | ≥ 80% | ≥ 80% | ≥ 80% | ≥ 80% | ≥ 80% |  |
| C=CC[C@](C)(Cc1ccccc1)NC(=O)c1cnc2c(F)cccc2c1 [Compound F-16, N-[(1R)-1-benzyl-1-methyl-but-3-enyl]-8-fluoro-quinoline-3-carboxamide] |  |  | ≥ 80% | ≥ 80% | ≥ 80% | ≥ 80% | ≥ 80% |  |
| CC(C)C[C@](C)(Cc1ccccc1Cl)NC(=O)c1cnc2c(F)cccc2c1 [Compound F-7, N-[(1R)-1-[(2-chlorophenyl)methyl]-1,3-dimethyl-butyl]-8-fluoro-quinoline-3-carboxamide] |  |  |  | ≥ 80% | ≥ 80% | ≥ 80% | ≥ 80% |  |
| CC(C#N)(Cc1ccc(Cl)cc1)NC(=O)c1cnc2c(F)cccc2c1 (stereo not drawn) [Compound E-7, N-[2-(4-chlorophenyl)-1-cyano-1-methyl-ethyl]-8-fluoro-quinoline-3-carboxamide] |  |  |  | ≥ 80% | ≥ 80% | ≥ 80% |  |  |
| CC(C)(C)C(Cc1ccccc1)NC(=O)c1cnc2c(F)cccc2c1 (stereo not drawn) [Compound E-12, N-(1-benzyl-2,2-dimethyl-propyl)-8-fluoro-quinoline-3-carboxamide] | ≥ 80% | ≥ 80% | ≥ 80% | ≥ 80% | ≥ 80% |  | ≥ 80% | 163 to 164 °C |
| CC(Cc1ccc(F)cc1)(CC(F)(F)F)NC(=O)c1cnc2c(F)cccc2c1 (stereo not drawn) [Compound E-66, 8-fluoro-N-[3,3,3-trifluoro-1-[(4-fluorophenyl)methyl]-1-methyl-propyl]quinoline-3-carboxamide] |  | ≥ 80% | ≥ 80% | ≥ 80% | ≥ 80% |  | ≥ 80% | 146 to 147 °C |
| CC(F)(F)C[C@](C)(Cc1ccccc1)NC(=O)c1cnc2c(F)cccc2c1 [Compound F-39, N-[(1S)-1-benzyl-3,3-difluoro-1-methyl-butyl]-8-fluoro-quinoline-3-carboxamide] | ≥ 80% | ≥ 80% | ≥ 80% | ≥ 80% | ≥ 80% |  | ≥ 80% |  |
| CC(Cc1ccccc1)(CC1CC1)NC(=O)c1cnc2c(F)cccc2c1 (stereo not drawn) [Compound E-49, N-(1-benzyl-2-cyclopropyl-1-methyl-ethyl)-8-fluoro-quinoline-3-carboxamide] | ≥ 80% | ≥ 80% | ≥ 80% | ≥ 80% | ≥ 80% |  | ≥ 80% |  |
